These results are taken from patent US20050054605A1, “Partial or full A1 agonists - N6 heterocyclic 5' thio substituted adenosine derivatives” (priority 1999, published 2005).

For assay [1], the target named is T1, A1 receptor in DDT1 cells (Mesocricetus auratus, UniProt A0A1U8BVR4).
T1 construct: endogenous in cells; host or cells: DDT1 cells (hamster vas deferens smooth muscle cell line): membranes in A1 and A3, whole cells in A4
T1 sequence (A0A1U8BVR4 1-326): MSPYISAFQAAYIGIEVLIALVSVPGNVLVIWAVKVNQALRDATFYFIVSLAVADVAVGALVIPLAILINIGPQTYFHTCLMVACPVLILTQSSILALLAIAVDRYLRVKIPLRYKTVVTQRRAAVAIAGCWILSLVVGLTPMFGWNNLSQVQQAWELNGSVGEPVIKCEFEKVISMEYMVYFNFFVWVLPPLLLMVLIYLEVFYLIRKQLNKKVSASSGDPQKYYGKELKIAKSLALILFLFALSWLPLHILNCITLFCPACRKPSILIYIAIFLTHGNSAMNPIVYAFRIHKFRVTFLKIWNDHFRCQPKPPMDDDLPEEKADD
In words: cAMP assay (SPA) in DDT1 cells, forskolin-induced cAMP. Type of assay: cell-based, hamster. To be noted: forskolin 5 μM; for Camp: rolipram 50 μM, 10 min 37° C., normalized to the full agonist CPA. On the procedure: (§1) DDT cells (hamster vas deferens smooth muscle cell line) were grown as monolayers in petri dishes using Dulbecco's Modified Eagle's Medium (DMEM) containing […] amphotericin B, 100 U ml^−1 penicillin G, 0.1 mg ml^−1 streptomycin sulfate and 5% fetal bovine serum in a humidified atmosphere of 95% air and 5% CO2. Cells were subcultured twice weekly by dispersion in Hank's Balanced Salt Solution (HBSS) without the divalent cations and containing 1 mM EDTA. The cells were then seeded in growth medium at a density of 1.2×10^5 cells per plate and experiments were performed 4 days later at approximately one day preconfluence.
A scintillation proximity assay (SPA) using rabbit antibodies directed at cAMP using an added tracer of adenosine 3′,5′-cyclic phosphoric acid 2′-O-succinyl-3-[^125I]iodotyrosine methyl ester and fluoromicrospheres containing anti-rabbit specific antibodies as described by Amersham Pharmacia Biotech (Biotrak cellular communication assays). Briefly, DDT1 cells were cultured in clear bottomed 96 well microtiter plates with opaque wells at concentrations between 10^4 to 10^6 cells per well in 40 μl of HBSS at 37° C. (5% CO2 and 95% humidity). The partial or full A1 agonists (5 μl) of this invention were incubated at various concentrations with the DDT1 cells in the presence of rolipram (50 μM), and 5 μM forskolin for 10 min at 37° C. The cells were immediately lysed by treatment 5 μl of 10% dodecyltrimethylammonium bromide followed by shaking using microplate shaker. After incubation of the plate for 5 minutes, an immunoreagent solution (150 μl containing equal volumes of tracer, antiserum, and SPA fluorospheres) was added to each well followed by sealing the plate. After 15-20 h at 23° C., the amount of bound [^125I] cAMP to the fluoromicrospheres was determined by counting in a microtitre plate scintillation counter for 2 minutes. Comparison of counts with standard curves generated for cAMP using a similar protocol afforded the cAMP present after cell lysis.

Assay [2] has as its target T2, A1 receptor (Sus scrofa, UniProt I3LEN5).
T2 construct: from tissue; host or cells: pig striatum membranes
T2 sequence (I3LEN5 1-326): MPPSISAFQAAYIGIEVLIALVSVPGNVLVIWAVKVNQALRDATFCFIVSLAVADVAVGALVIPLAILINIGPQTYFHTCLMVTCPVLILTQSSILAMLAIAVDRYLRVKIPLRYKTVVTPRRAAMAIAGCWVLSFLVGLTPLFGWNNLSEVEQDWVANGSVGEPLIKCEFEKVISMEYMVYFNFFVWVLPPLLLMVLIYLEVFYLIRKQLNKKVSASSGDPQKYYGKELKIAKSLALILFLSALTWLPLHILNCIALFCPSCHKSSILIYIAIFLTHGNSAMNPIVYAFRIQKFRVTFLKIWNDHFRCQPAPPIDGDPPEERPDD
In words: Competitive binding assay, pig striatum membranes, [3H]CPX. The note with it: pig striatal membranes, antagonist [3H]CPX 2 nM, 23 C, 2 h. On the procedure:
(§2) Pig striatum were prepared by homogenation in 50 mM Tris buffer (5× volume of tissue mass pH=7.4). After centrifugation at 19,000 rpm for 25 minutes at 4° C., the supernatant was discarded, and the process was repeated twice. Compositions of this invention were assayed to determine their affinity for the A1 receptor in a pig striatum membrane prep or a DDT1 membrane prep. Briefly, 0.2 mg of pig striatal membranes or DDT1 cell membranes were treated with adenosine deaminase and 50 mM Tris buffer (pH=7.4) followed by mixing. To the pig membranes was added 2 μL of serially diluted DMSO stock solution of the compounds of this invention at concentrations ranging from 100 microM to 10 nM. The control received 2 microL of DMSO alone, then the antagonist [^3H] 8-cyclopentylxanthine (CPX) for pig striatum or the agonist [^3H] 2-chloro-6-cyclopentyladenosine (CCPA) for DDT1 membranes in Tris buffer (50 mM, pH of 7.4) was added to achieve a final concentration of 2 nM. After incubation at 23 C for 2 h, then the solutions were filtered using a membrane harvester using multiple washing of the membranes (3×). The filter disks were counted in scintillation cocktail affording the amount of displacement of tritiated CPX or by the competitive binding compositions of this invention. Greater than a 5 point curve was used to generate Ki's and the number of experiments is indicated in the column marked in Table 1, below: […]

In a further assay the target is T3, A1 AdoR (Mesocricetus auratus, UniProt A0A1U8BVR4).
T3 construct: endogenous in cells; host or cells: DDT1 cells (hamster vas deferens smooth muscle cell line): membranes in A1 and A3, whole cells in A4
T3 sequence (A0A1U8BVR4 1-326): T1 sequence (A0A1U8BVR4 1-326)
In words: [35S]GTPγS binding assay (A1-agonist stimulated), DDT1 membranes. The class given is biochemical, hamster. The note with it: stimulated [35S]GTPγS binding normalized to the full agonist CPA. On the procedure:
as §1
(§3) Attached cells were washed twice with HBSS (2×10 ml), scraped free of the plate with the aid of a rubber policeman in 5 ml of 50 mM Tris-HCl buffer pH 7.4 at 4° C. and the suspension homogenized for 10 s. The suspension was then centrifuged at 27,000×g for 10 min. The pellet was resuspended in homogenization buffer by vortexing and centrifuged as described above. The final pellet was resuspended in 1 vol of 50 mM Tris-HCl buffer pH 7.4 containing 5 mM MgCl2 for A1 AdoR assays. For the [^35S]GTPγS binding assay the final pellet was resuspended in 50 mM Tris-HCl pH 7.4 containing 5 mM MgCl2, 100 mM NaCl and 1 mM dithiothreitol. This membrane suspension was then placed in liquid nitrogen for 10 min, thawed and used for assays. The protein content was determined with a Bradford™ Assay Kit using bovine serum albumin as standard.
A1-agonist stimulated [^35S] GTPγS binding was determined by a modification of the method described by Giersckik et al. (1991) and Lorenzen et al. (1993). […] Nonspecific binding was determined by the addition of 10 μM GTPγS. […] Previous reports have shown that agonist stimulated [^35S]GTPγS binding was dependent on the presence of GDP (Gierschik et al., 1991; Lorenzen et al., 1993; Traynor & Nahorski, 1995). […] In saturation experiments, 0.5 nM [^35S]GTPγS was incubated with 0.5-1000 nM GTPγS. At the end of the incubation, each suspension was filtered and the retained radioactivity determined as described above.

In assay [3] the target is T4, A1 receptor (Mesocricetus auratus, UniProt A0A1U8BVR4).
T4 construct: endogenous in cells; host or cells: DDT1 cells (hamster vas deferens smooth muscle cell line): membranes in A1 and A3, whole cells in A4
T4 sequence (A0A1U8BVR4 1-326): T1 sequence (A0A1U8BVR4 1-326)
In words: Competitive binding assay, DDT1 cell membranes, [3H]CCPA. To be noted: DDT1 membrane prep, agonist [3H]CCPA 2 nM, 23 C, 2 h. Further details: species or system hamster. On the procedure: as §1, §3, §2

As for `OC[C@H]1O[C@@H](n2cnc3c(NC4CCCC4)ncnc32)[C@H](O)[C@@H]1O` [CPA, N-6-cyclopentyladenosine, reference compound], in assay [1], the “effect on forskolin induced cAMP generation” value was “diminished the amount of forskolin induced cAMP generation back to basal levels” and the Camp was determined as 107%.

The molecule `CSC[C@H]1O[C@@H](n2cnc3c(N[C@@H]4CCOC4)ncnc32)[C@H](O)[C@@H]1O` [Compound 7, 2-{6-[((3R)oxolan-3-yl)amino]purin-9-yl}(4S,5S,2R,3R)-5-(methylthiomethyl)oxolane-3,4-diol] registered an inhibitory constant (Ki) on A1 receptor [2] of 222 nM.

As to `CCSC[C@H]1O[C@@H](n2cnc3c(N[C@@H]4CCOC4)ncnc32)[C@H](O)[C@@H]1O` [Compound 8, 2-{6-[((3R)oxolan-3-yl)amino]purin-9-yl}(4S,5S,2R,3R)-5-[(Ethylthio)methyl]oxolane-3,4-diol], the “GTP[…]S” value on A1 AdoR is on record as 104%. In addition, in assay [1], the Camp is reported as 37%.

On to `CC(C)SC[C@H]1O[C@@H](n2cnc3c(N[C@@H]4CCOC4)ncnc32)[C@H](O)[C@@H]1O` [Compound 10, 2-{6-[((3R)oxolan-3-yl)amino]purin-9-yl}(4S,5S,2R,3R)-5-[(Methylethylthio)methyl]oxolane-3,4-diol], for which, on A1 receptor [2], the inhibitory constant (Ki) came out at 188 nM.

As for `O[C@@H]1[C@H](O)[C@@H](CSc2ccccc2)O[C@H]1n1cnc2c(N[C@@H]3CCOC3)ncnc21` [Compound 11, 2-{6-[((3R)oxolan-3-yl)amino]purin-9-yl}(4S,5S,2R,3R)-5-(phenylthiomethyl)oxolane-3,4-diol], the inhibition constant Ki at A1 receptor [2] is 44 nM.

Consider `COc1ccc(SC[C@H]2O[C@@H](n3cnc4c(N[C@@H]5CCOC5)ncnc43)[C@H](O)[C@@H]2O)cc1` [Compound 12, 2-{6-[((3R)oxolan-3-yl)amino]purin-9-yl}(4S,5S,2R,3R)-5-[(4-Methoxyphenylthio)methyl]oxolane-3,4-diol], for which, on A1 receptor [3], the affinity, expressed as Ki, was 820 nM. The “GTP[…]S” value on A1 AdoR was 52%. The Camp in assay [1] is −9%.

Consider `O[C@@H]1[C@H](O)[C@@H](CSc2ccc(Cl)cc2)O[C@H]1n1cnc2c(N[C@@H]3CCOC3)ncnc21` [Compound 13, 2-{6-[((3R)oxolan-3-yl)amino]purin-9-yl}(4S,5S,2R,3R)-5-[(4-chlorophenylthio)methyl]oxolane-3,4-diol], for which the “GTP[…]S” value at A1 AdoR was 69%. Moreover, the Camp in assay [1] stood at 30%.

Turning to `O[C@@H]1[C@H](O)[C@@H](CSc2ccc(F)cc2)O[C@H]1n1cnc2c(N[C@@H]3CCOC3)ncnc21` [Compound 14, 2-{6-[((3R)oxolan-3-yl)amino]purin-9-yl}(4S,5S,2R,3R)-5-[(4-fluorophenylthio)methyl]oxolane-3,4-diol], at A1 receptor [3], the affinity corresponds to a Ki of 363 nM. Moreover, the “GTP[…]S” value on A1 AdoR stood at 61%. In addition, the Camp in assay [1] is recorded as 47%.

As to `Cc1ccc(SC[C@H]2O[C@@H](n3cnc4c(N[C@@H]5CCOC5)ncnc43)[C@H](O)[C@@H]2O)cc1` [Compound 15, 2-{6-[((3R)oxolan-3-yl)amino]purin-9-yl}(4S,5S,2R,3R)-5-[(4-methylphenylthio)methyl]oxolane-3,4-diol], the inhibition constant Ki at A1 receptor [3] worked out at 922 nM. Also, the “GTP[…]S” value at A1 AdoR worked out at 48%. Further, the Camp in assay [1] turned out to be 22%.

With `O[C@@H]1[C@H](O)[C@@H](CSc2ccc(C(F)(F)F)cc2)O[C@H]1n1cnc2c(N[C@@H]3CCOC3)ncnc21` [Compound 16, 2-{6-[((3R)oxolan-3-yl)amino]purin-9-yl}(4S,5S,2R,3R)-5-[(4-(trifluoromethyl)phenylthio)methyl]oxolane-3,4-diol], at A1 receptor [3], the inhibitory constant (Ki) came out at 7700 nM. Moreover, the “GTP[…]S” value on A1 AdoR is 31%. The Camp in assay [1] amounted to 22%.

On A1 receptor [3], `COc1ccccc1SC[C@H]1O[C@@H](n2cnc3c(N[C@@H]4CCOC4)ncnc32)[C@H](O)[C@@H]1O` [Compound 17, 2-{6-[((3R)oxolan-3-yl)amino]purin-9-yl}(4S,5S,2R,3R)-5-[(2-Methoxyphenylthio)methyl]oxolane-3,4-diol] had a Ki of 947 nM. Further, on A1 AdoR, the “GTP[…]S” value stood at 52%. Besides, the Camp in assay [1] was found to be 18%.
